According to paper PMC4599007, “The GH130 Family of Mannoside Phosphorylases Contains Glycoside Hydrolases That Target β-1,2-Mannosidic Linkages in Candida Mannan” (The Journal of Biological Chemistry, 2015):

Molecular target: T1, BT3780 (Bacteroides thetaiotaomicron, UniProt Q8A186)
T1 construct: gene BT_3780; signal peptide residues 1-16; residues 17-384 built in crystal (C-terminal Pro printed as 383); monomer
T1 sequence (Q8A186 17-383): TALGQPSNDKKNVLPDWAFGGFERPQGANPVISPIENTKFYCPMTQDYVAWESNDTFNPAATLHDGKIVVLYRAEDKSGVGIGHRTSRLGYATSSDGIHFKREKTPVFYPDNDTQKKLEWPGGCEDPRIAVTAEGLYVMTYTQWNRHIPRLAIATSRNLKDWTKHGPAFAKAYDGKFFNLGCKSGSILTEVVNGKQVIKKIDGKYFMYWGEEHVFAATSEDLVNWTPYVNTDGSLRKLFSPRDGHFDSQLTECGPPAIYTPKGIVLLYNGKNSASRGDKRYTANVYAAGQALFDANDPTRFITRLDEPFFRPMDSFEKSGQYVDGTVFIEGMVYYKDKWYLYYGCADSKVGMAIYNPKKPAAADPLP
Experiment: X-ray crystal structure, […] Å
Type: binding
Conditions: 0.3 M mannose in crystallisation; bound in -1 and +1 subsites of the active site

**Q.** Which “X-ray crystal structure, 1.35 Å” value does the source give for `OC[C@H]1OC(O)[C@@H](O)[C@@H](O)[C@@H]1O` (stereo partly shown) [mannose] here?
**A.** Its value is “The pocket houses two mannose residues (the crystal structure of BT3780 was obtained in the presence”.
